# Test results from patent US10597388B2, “Pyridazinone herbicides” (FMC CORPORATION, priority 2014, dated 2020).
# Assays:
# Assay in all cases: Test D controlled growth environment herbicide test, pre- and postemergence
# Type in all cases: in vivo
# [1] = tested on: barley, spring (spring barley, Hordeum vulgare)
# Summary of the method: (§1)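 Pre-emergence: seeds sown in silt loam soil were sprayed with compound in a non-phytotoxic solvent mix containing surfactant. Post-emergence: plants at 2 to 18 cm (1- to 4-leaf stage) in peat moss/vermiculite medium got the same formulation. Visual 0–100 rating versus controls after 14 to 21 d.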
# [2] = tested on: barley, winter (winter barley, Hordeum vulgare)
# Summary of the method: as §1
# [3] = tested on: bluegrass (annual bluegrass, Poa annua)
# Summary of the method: as §1
# [4] = tested on: bromegrass, downy (downy bromegrass, Bromus tectorum)
# Summary of the method: as §1
# [5] = tested on: canarygrass (Phalaris minor)
# Summary of the method: as §1
# [6] = tested on: chamomile (scentless chamomile, Matricaria inodora)
# Summary of the method: as §1
# [7] = tested on: foxtail, green (green foxtail, Setaria viridis)
# Summary of the method: as §1
# [8] = tested on: galium (catchweed bedstraw, Galium aparine)
# Summary of the method: as §1
# kochia (Kochia scoparia) = tested on: kochia (Kochia scoparia)
# Summary of the method: as §1
# [9] = tested on: lambsquarters (Chenopodium album)
# Summary of the method: as §1
# [10] = tested on: mustard, wild (wild mustard, Sinapis arvensis)
# Summary of the method: as §1
# [11] = tested on: oat, wild (wild oat, Avena fatua)
# Summary of the method: as §1
# [12] = tested on: speedwell (bird's-eye speedwell, Veronica persica)
# Summary of the method: as §1
# [13] = Postemergence, 31 g ai/ha, scale 0 to 100 (0 no effect, 100 complete control)
# [14] = Postemergence, 125 g ai/ha, visual rating on scale 0 (no effect) to 100 (complete control), 14 to 21 d
# [15] = Postemergence, 250 g ai/ha, scale 0 to 100 (0 no effect, 100 complete control)
# [16] = Preemergence, 62 g ai/ha, scale 0 to 100 (0 no effect, 100 complete control)
# [17] = Preemergence, 125 g ai/ha, scale 0 to 100 (0 no effect, 100 complete control)
# [18] = Preemergence, 250 g ai/ha, scale 0 to 100 (0 no effect, 100 complete control)
# [19] = postemergence, 62 g ai/ha, scale 0 to 100, 0 no effect, 100 complete control
smiles,measurement,setting,value
CC(=O)Oc1c(C)nn(C)c(=O)c1-c1c(C)cc(C)c2ccccc12 [Compound 153],"Barley, Spring plant response rating",[1]; [13],5
same,"Plant response rating, Barley, Spring",[1]; [14],15
same,"Plant response rating, Barley, Spring",[1]; [15],30
same,"Plant response rating (scale of 0 to 100), Barley, Spring","[1]; Preemergence, 31 g ai/ha",0
same,"Plant response rating, Barley, Spring",[1]; [16],0
same,"Plant response rating, Barley, Spring",[1]; [17],25
same,"Plant response rating, Barley, Spring",[1]; [18],40
same,"Plant response rating, Barley, Spring",[1]; [19],5
same,"Barley, Winter plant response rating",[2]; [13],0
same,"Plant response rating, Barley, Winter",[2]; [14],10
same,"Plant response rating, Barley, Winter",[2]; [15],25
same,"Plant response rating (scale of 0 to 100), Barley, Winter","[2]; Preemergence, 31 g ai/ha",0
same,"Plant response rating, Barley, Winter",[2]; [16],10
same,"Plant response rating, Barley, Winter",[2]; [17],25
same,"Plant response rating, Barley, Winter",[2]; [18],40
same,"Plant response rating, Barley, Winter",[2]; [19],5
same,Bluegrass plant response rating,[3]; [13],15
same,"Plant response rating, Bluegrass",[3]; [14],30
same,"Plant response rating, Bluegrass",[3]; [15],40
same,"Plant response rating (scale of 0 to 100), Bluegrass","[3]; Preemergence, 31 g ai/ha",70
same,"Plant response rating, Bluegrass",[3]; [16],75
same,"Plant response rating, Bluegrass",[3]; [17],75
same,"Plant response rating, Bluegrass",[3]; [18],75
same,"Plant response rating, Bluegrass",[3]; [19],15
same,"Bromegrass, Downy plant response rating",[4]; [13],25
same,"Plant response rating, Bromegrass, Downy",[4]; [14],65
same,"Plant response rating, Bromegrass, Downy",[4]; [15],70
same,"Plant response rating (scale of 0 to 100), Bromegrass, Downy","[4]; Preemergence, 31 g ai/ha",75
same,"Plant response rating, Bromegrass, Downy",[4]; [16],75
same,"Plant response rating, Bromegrass, Downy",[4]; [17],85
same,"Plant response rating, Bromegrass, Downy",[4]; [18],95
same,"Plant response rating, Bromegrass, Downy",[4]; [19],35
same,Canarygrass plant response rating,[5]; [13],75
same,"Plant response rating, Canarygrass",[5]; [14],80
same,"Plant response rating, Canarygrass",[5]; [15],85
same,"Plant response rating (scale of 0 to 100), Canarygrass","[5]; Preemergence, 31 g ai/ha",85
same,"Plant response rating (scale of 0 to 100), Canarygrass","[5]; Preemergence, 62 g ai/ha",90
same,"Plant response rating, Canarygrass",[5]; [17],95
same,"Plant response rating, Canarygrass",[5]; [18],100
same,"Plant response rating, Canarygrass",[5]; [19],75
same,Chamomile plant response rating,[6]; [13],70
same,"Plant response rating, Chamomile",[6]; [14],100
same,"Plant response rating, Chamomile",[6]; [15],100
same,"Plant response rating (scale of 0 to 100), Chamomile","[6]; Preemergence, 31 g ai/ha",100
same,"Plant response rating (scale of 0 to 100), Chamomile","[6]; Preemergence, 62 g ai/ha",100
same,"Plant response rating, Chamomile",[6]; [17],100
same,"Plant response rating, Chamomile",[6]; [18],100
same,"Plant response rating, Chamomile",[6]; [19],95
same,"Foxtail, Green plant response rating",[7]; [13],80
same,"Plant response rating, Foxtail, Green",[7]; [14],85
same,"Plant response rating, Foxtail, Green",[7]; [15],85
same,"Plant response rating (scale of 0 to 100), Foxtail, Green","[7]; Preemergence, 31 g ai/ha",75
same,"Plant response rating (scale of 0 to 100), Foxtail, Green","[7]; Preemergence, 62 g ai/ha",75
same,"Plant response rating, Foxtail, Green",[7]; [17],100
same,"Plant response rating, Foxtail, Green",[7]; [18],100
same,"Plant response rating, Foxtail, Green",[7]; [19],80
same,Galium plant response rating,[8]; [13],100
same,"Plant response rating, Galium",[8]; [14],100
same,"Plant response rating, Galium",[8]; [15],100
same,"Plant response rating (scale of 0 to 100), Galium","[8]; Preemergence, 31 g ai/ha",85
same,"Plant response rating (scale of 0 to 100), Galium","[8]; Preemergence, 62 g ai/ha",95
same,"Plant response rating, Galium",[8]; [17],95
same,"Plant response rating, Galium",[8]; [18],98
same,"Plant response rating, Galium",[8]; [19],100
same,Kochia plant response rating,kochia (Kochia scoparia); [13],20
same,"Plant response rating, Kochia",kochia (Kochia scoparia); [14],30
same,"Plant response rating, Kochia",kochia (Kochia scoparia); [15],35
same,"Plant response rating (scale of 0 to 100), Kochia","kochia (Kochia scoparia); Preemergence, 31 g ai/ha",20
same,"Plant response rating (scale of 0 to 100), Kochia","kochia (Kochia scoparia); Preemergence, 62 g ai/ha",50
same,"Plant response rating, Kochia",kochia (Kochia scoparia); [17],25
same,"Plant response rating, Kochia",kochia (Kochia scoparia); [18],70
same,"Plant response rating, Kochia",kochia (Kochia scoparia); [19],15
same,Lambsquarters plant response rating,[9]; [13],75
same,"Plant response rating, Lambsquarters",[9]; [14],65
same,"Plant response rating, Lambsquarters",[9]; [15],75
same,"Plant response rating (scale of 0 to 100), Lambsquarters","[9]; Preemergence, 31 g ai/ha",70
same,"Plant response rating (scale of 0 to 100), Lambsquarters","[9]; Preemergence, 62 g ai/ha",85
same,"Plant response rating, Lambsquarters",[9]; [17],100
same,"Plant response rating, Lambsquarters",[9]; [18],100
same,"Plant response rating, Lambsquarters",[9]; [19],65
same,"Mustard, Wild plant response rating",[10]; [13],98
same,"Plant response rating, Mustard, Wild",[10]; [14],100
same,"Plant response rating, Mustard, Wild",[10]; [15],100
same,"Plant response rating (scale of 0 to 100), Mustard, Wild","[10]; Preemergence, 31 g ai/ha",100
same,"Plant response rating (scale of 0 to 100), Mustard, Wild","[10]; Preemergence, 62 g ai/ha",100
same,"Plant response rating, Mustard, Wild",[10]; [17],100
same,"Plant response rating, Mustard, Wild",[10]; [18],100
same,"Plant response rating, Mustard, Wild",[10]; [19],98
same,"Oat, Wild plant response rating",[11]; [13],85
same,"Plant response rating, Oat, Wild",[11]; [14],90
same,"Plant response rating, Oat, Wild",[11]; [15],98
same,"Plant response rating (scale of 0 to 100), Oat, Wild","[11]; Preemergence, 31 g ai/ha",80
same,"Plant response rating (scale of 0 to 100), Oat, Wild","[11]; Preemergence, 62 g ai/ha",95
same,"Plant response rating, Oat, Wild",[11]; [17],98
same,"Plant response rating, Oat, Wild",[11]; [18],98
same,"Plant response rating, Oat, Wild",[11]; [19],85
same,Speedwell plant response rating,[12]; [13],75
same,"Plant response rating, Speedwell",[12]; [14],90
same,"Plant response rating, Speedwell",[12]; [15],100
same,"Plant response rating (scale of 0 to 100), Speedwell","[12]; Preemergence, 31 g ai/ha",100
same,"Plant response rating (scale of 0 to 100), Speedwell","[12]; Preemergence, 62 g ai/ha",100
same,"Plant response rating, Speedwell",[12]; [17],100
same,"Plant response rating, Speedwell",[12]; [18],100
same,"Plant response rating, Speedwell",[12]; [19],75
